In ChEMBL document CHEMBL1130408, “Repromicin derivatives with potent antibacterial activity against Pasteurella multocida” (1997):
In brackets after ≈: the same amount, converted by molar mass.

How the values were obtained:
Pasteurella multocida = assay: Minimum inhibitory concentration required to inhibit Pasteurella multocida 59A006 in vitro; type: functional
Mus musculus = species: Mus musculus; assay: Protected dose which protects 50% of challenged mice from death owing to the Pasteurella multocida (59A006) infection; type: functional; conditions: read-out: PD50

SMILES	MIC (Pasteurella multocida) [mg/L]	ED50 (Mus musculus) [mg/kg]
CC[C@H]1OC(=O)CC(O)[C@H](C)[C@@H](O[C@@H]2O[C@H](C)[C@@H](O)[C@H](N(C)C)[C@H]2O)[C@@H](CCN(C)CCCN(C)C)C[C@@H](C)C(=O)/C=C/C(C)=C/[C@@H]1CO[C@@H]1O[C@H](C)[C@@H](O)[C@@H](OC)[C@H]1OC (stereo not given in full)	3.13 (≈ 3.59 µM)	41
CC[C@H]1OC(=O)CC(O)[C@H](C)[C@@H](O[C@@H]2O[C@H](C)[C@@H](O)[C@H](N(C)C)[C@H]2O)[C@@H](CCNCCCN(C)C)C[C@@H](C)C(=O)/C=C/C(C)=C/[C@@H]1CO[C@@H]1O[C@H](C)[C@@H](O)[C@@H](OC)[C@H]1OC (stereo not given in full)	12.5 (≈ 14.6 µM)	–
CO[C@@H]1[C@@H](O[C@@H]2O[C@H](C)[C@@H](O[C@H]3C[C@@](C)(O)[C@@H](OC(=O)CC(C)C)[C@@H](C)O3)[C@@H](N(C)C)[C@H]2O)[C@@H](CC=O)C[C@@H](C)C(=O)/C=C/C=C/C[C@@H](C)OC(=O)C[C@H]1OC(C)=O	6.25 (≈ 7.57 µM)	> 150
CC[C@H]1OC(=O)CC(O)[C@H](C)[C@@H](O[C@@H]2O[C@H](C)C[C@H](N(C)C)[C@H]2O)[C@@H](CCNCCCN(C)C)C[C@@H](C)C(=O)/C=C/C(C)=C/[C@@H]1C (stereo not given in full)	0.39 (≈ 0.598 µM)	5
CC[C@H]1OC(=O)CC(O)[C@H](C)[C@@H](O[C@@H]2O[C@H](C)C[C@H](N(C)C)[C@H]2O)[C@@H](CCNCC(O)CO)C[C@@H](C)C(=O)/C=C/C(C)=C/[C@@H]1C (stereo not given in full)	0.39 (≈ 0.609 µM)	10
CC[C@H]1OC(=O)CC(O)[C@H](C)[C@@H](O[C@@H]2O[C@H](C)C[C@H](N(C)C)[C@H]2O)[C@@H](CCN2CC(C)CC(C)C2)C[C@@H](C)C(=O)/C=C/[C@]2(C)O[C@H]2[C@@H]1C (stereo not given in full)	0.2 (≈ 0.295 µM)	> 150
CC[C@H]1OC(=O)CC(O)[C@H](C)[C@@H](O[C@@H]2O[C@H](C)C[C@H](N(C)C)[C@H]2O)[C@@H](CCN(CC)CC)C[C@@H](C)C(=O)/C=C/C(C)=C/[C@@H]1C (stereo not given in full)	0.39 (≈ 0.626 µM)	141
CC[C@H]1OC(=O)CC(O)[C@H](C)[C@@H](O[C@@H]2O[C@H](C)C[C@H](N(C)C)[C@H]2O)[C@@H](CCN(CCCN(C)C)C(C)=O)C[C@@H](C)C(=O)/C=C/C(C)=C/[C@@H]1C (stereo not given in full)	0.39 (≈ 0.562 µM)	> 25
CC[C@H]1OC(=O)CC(O)[C@H](C)[C@@H](O[C@@H]2O[C@H](C)C[C@H](N(C)C)[C@H]2O)[C@@H](CCN2CCN(C)CC2)C[C@@H](C)C(=O)/C=C/C(C)=C/[C@@H]1C (stereo not given in full)	0.39 (≈ 0.6 µM)	> 150
CC[C@H]1OC(=O)CC(O)[C@H](C)[C@@H](O[C@@H]2O[C@H](C)C[C@H](N(C)C)[C@H]2O)[C@@H](CCN(C)CCCN(C)C(=O)[C@H](C)N)C[C@@H](C)C(=O)/C=C/C(C)=C/[C@@H]1C (stereo not given in full)	0.39 (≈ 0.539 µM)	5
CC[C@H]1OC(=O)CC(O)[C@H](C)[C@@H](O[C@@H]2O[C@H](C)C[C@H](N(C)C)[C@H]2O)[C@@H](CCNCC(C)(C)CO)C[C@@H](C)C(=O)/C=C/C(C)=C/[C@@H]1C (stereo not given in full)	0.05 (≈ 0.0766 µM)	26
CC[C@H]1OC(=O)CC(O)[C@H](C)[C@@H](O[C@@H]2O[C@H](C)C[C@H](N(C)C)[C@H]2O)[C@@H](CCN(C)CCCN(C)C)C[C@@H](C)C(=O)/C=C/C(C)=C/[C@@H]1C (stereo not given in full)	0.1 (≈ 0.15 µM)	26
CC[C@H]1OC(=O)CC(O)[C@H](C)[C@@H](O[C@@H]2O[C@H](C)C[C@H](N(C)C)[C@H]2O)[C@@H](CCN(C)C)C[C@@H](C)C(=O)/C=C/C(C)=C/[C@@H]1C (stereo not given in full)	0.39 (≈ 0.656 µM)	150
CC[C@H]1OC(=O)CC(O)[C@H](C)[C@@H](O[C@@H]2O[C@H](C)C[C@H](N(C)C)[C@H]2O)[C@@H](CCN2CCCC2)C[C@@H](C)C(=O)/C=C/C(C)=C/[C@@H]1C (stereo not given in full)	0.39 (≈ 0.628 µM)	128
CC[C@H]1OC(=O)CC(O)[C@H](C)[C@@H](O[C@@H]2O[C@H](C)C[C@H](N(C)C)[C@H]2O)[C@@H](CCN2CCCCCC2)C[C@@H](C)C(=O)/C=C/[C@]2(C)O[C@H]2[C@@H]1C (stereo not given in full)	0.2 (≈ 0.301 µM)	150
CC[C@H]1OC(=O)CC(O)[C@H](C)[C@@H](O[C@@H]2O[C@H](C)C[C@H](N(C)C)[C@H]2O)[C@@H](CCNCCN(C)C)C[C@@H](C)C(=O)/C=C/C(C)=C/[C@@H]1C (stereo not given in full)	0.2 (≈ 0.314 µM)	100
CC[C@H]1OC(=O)CC(O)[C@H](C)[C@@H](O[C@@H]2O[C@H](C)C[C@H](N(C)C)[C@H]2O)[C@@H](CCN(C)CCO)C[C@@H](C)C(=O)/C=C/C(C)=C/[C@@H]1C (stereo not given in full)	0.2 (≈ 0.32 µM)	45
CC[C@H]1OC(=O)CC(O)[C@H](C)[C@@H](O[C@@H]2O[C@H](C)C[C@H](N(C)C)[C@H]2O)[C@@H](CCN(C)CCNC)C[C@@H](C)C(=O)/C=C/C(C)=C/[C@@H]1C (stereo not given in full)	0.2 (≈ 0.314 µM)	> 20

SMILES	MIC (Pasteurella multocida) [mg/L]	ED50 (Mus musculus) [mg/kg]
CC[C@H]1OC(=O)CC(O)[C@H](C)[C@@H](O[C@@H]2O[C@H](C)C[C@H](N(C)C)[C@H]2O)[C@@H](CCN(CCCN(C)C)C(=O)CNC)C[C@@H](C)C(=O)/C=C/C(C)=C/[C@@H]1C (stereo not given in full)	1.56 (≈ 2.16 µM)	6
CCNCC[C@H]1C[C@@H](C)C(=O)/C=C/C(C)=C/[C@H](C)[C@@H](CC)OC(=O)CC(O)[C@H](C)[C@H]1O[C@@H]1O[C@H](C)C[C@H](N(C)C)[C@H]1O (stereo not given in full)	0.2 (≈ 0.336 µM)	> 150
CC[C@H]1OC(=O)CC(O)[C@H](C)[C@@H](O[C@@H]2O[C@H](C)C[C@H](N(C)C)[C@H]2O)[C@@H](CCN2CCOCC2)C[C@@H](C)C(=O)/C=C/C(C)=C/[C@@H]1C (stereo not given in full)	0.78 (≈ 1.22 µM)	> 150
CC[C@H]1OC(=O)CC(O)[C@H](C)[C@@H](O[C@@H]2O[C@H](C)C[C@H](N(C)C)[C@H]2O)[C@@H](CCN(C)CC)C[C@@H](C)C(=O)/C=C/C(C)=C/[C@@H]1C (stereo not given in full)	0.2 (≈ 0.328 µM)	150
CC[C@H]1OC(=O)CC(O)[C@H](C)[C@@H](O[C@@H]2O[C@H](C)[C@@H](O)[C@H](N(C)C)[C@H]2O)[C@@H](CCN(C)CCCNC)C[C@@H](C)C(=O)/C=C/C(C)=C/[C@@H]1CO[C@@H]1O[C@H](C)[C@@H](O)[C@@H](OC)[C@H]1OC (stereo not given in full)	25 (≈ 29.1 µM)	–
CC[C@H]1OC(=O)C[C@@H](O)[C@H](C)[C@@H](O[C@@H]2O[C@H](C)[C@@H](O[C@H]3C[C@@](C)(O)[C@@H](O)[C@H](C)O3)[C@H](N(C)C)[C@H]2O)[C@@H](CC=O)C[C@@H](C)C(=O)/C=C/C(C)=C/[C@@H]1CO[C@@H]1O[C@H](C)[C@@H](O)[C@@H](OC)[C@H]1OC [TYLOSIN]	25 (≈ 27.3 µM)	86
CO[C@@H]1[C@@H](O[C@@H]2O[C@H](C)[C@@H](O[C@H]3C[C@@](C)(O)[C@@H](OC(=O)CC(C)C)[C@H](C)O3)[C@H](N(C)C)[C@H]2O)[C@@H](CC=O)C[C@@H](C)C(=O)/C=C/[C@@H]2O[C@H]2C[C@@H](C)OC(=O)C[C@H]1OC(C)=O [CARBOMYCIN A]	1.56 (≈ 1.85 µM)	> 150
CC[C@H]1OC(=O)CC(O)[C@H](C)[C@@H](O[C@@H]2O[C@H](C)C[C@H](N(C)C)[C@H]2O)[C@@H](CCN(C)CCCNC)C[C@@H](C)C(=O)/C=C/C(C)=C/[C@@H]1C (stereo not given in full)	0.78 (≈ 1.2 µM)	4
CC[C@H]1OC(=O)CC(O)[C@H](C)[C@@H](O[C@@H]2O[C@H](C)[C@@H](O)[C@H](N(C)C)[C@H]2O)[C@@H](CCN(C)CCN(C)C)C[C@@H](C)C(=O)/C=C/C(C)=C/[C@@H]1CO[C@@H]1O[C@H](C)[C@@H](O)[C@@H](OC)[C@H]1OC (stereo not given in full)	3.13 (≈ 3.65 µM)	> 50
CC[C@H]1OC(=O)CC(O)[C@H](C)[C@@H](O[C@@H]2O[C@H](C)C[C@H](N(C)C)[C@H]2O)[C@@H](CCN2CCC2)C[C@@H](C)C(=O)/C=C/C(C)=C/[C@@H]1C (stereo not given in full)	0.2 (≈ 0.33 µM)	46
CC[C@H]1OC(=O)CC(O)[C@H](C)[C@@H](O[C@@H]2O[C@H](C)C[C@H](N(C)C)[C@H]2O)[C@@H](CCN2CCCCC2)C[C@@H](C)C(=O)/C=C/C(C)=C/[C@@H]1C (stereo not given in full)	0.2 (≈ 0.315 µM)	150
CC[C@H]1OC(=O)CC(O)[C@H](C)[C@@H](O[C@@H]2O[C@H](C)C[C@H](N(C)C)[C@H]2O)[C@@H](CCN2CCCCC2)C[C@@H](C)C(=O)/C=C/[C@]2(C)O[C@H]2[C@@H]1C (stereo not given in full)	0.2 (≈ 0.307 µM)	114
CC[C@H]1OC(=O)CC(O)[C@H](C)[C@@H](O[C@@H]2O[C@H](C)C[C@H](N(C)C)[C@H]2O)[C@@H](CCNCCO)C[C@@H](C)C(=O)/C=C/C(C)=C/[C@@H]1C (stereo not given in full)	0.2 (≈ 0.327 µM)	10
CC[C@H]1OC(=O)CC(O)[C@H](C)[C@@H](O[C@@H]2O[C@H](C)C[C@H](N(C)C)[C@H]2O)[C@@H](CCN2CCCC2)C[C@@H](C)C(=O)/C=C/[C@]2(C)O[C@H]2[C@@H]1C (stereo not given in full)	0.78 (≈ 1.22 µM)	> 150
CC[C@H]1OC(=O)CC(O)[C@H](C)[C@@H](O[C@@H]2O[C@H](C)C[C@H](N(C)C)[C@H]2O)[C@@H](CCN(C)C)C[C@@H](C)C(=O)/C=C/[C@]2(C)O[C@H]2[C@@H]1C (stereo not given in full)	0.39 (≈ 0.638 µM)	> 150
CC[C@H]1OC(=O)CC(O)[C@H](C)[C@@H](O[C@@H]2O[C@H](C)C[C@H](N(C)C)[C@H]2O)[C@@H](CCN2CC(O)C2)C[C@@H](C)C(=O)/C=C/C(C)=C/[C@@H]1C (stereo not given in full)	0.2 (≈ 0.321 µM)	19
CC[C@H]1OC(=O)CC(O)[C@H](C)[C@@H](O[C@@H]2O[C@H](C)C[C@H](N(C)C)[C@H]2O)[C@@H](CCN(CC)CC)C[C@@H](C)C(=O)/C=C/[C@]2(C)O[C@H]2[C@@H]1C (stereo not given in full)	0.78 (≈ 1.22 µM)	123
CC[C@H]1OC(=O)CC(O)[C@H](C)[C@@H](O[C@@H]2O[C@H](C)C[C@H](N(C)C)[C@H]2O)[C@@H](CCNC(C)(C)C)C[C@@H](C)C(=O)/C=C/C(C)=C/[C@@H]1C (stereo not given in full)	0.39 (≈ 0.626 µM)	150
